One data set is described as follows: Solubility of CBD in BCP. In kind it is physicochemical. To be noted: in 1 mL of BCP. How it is done:
For example, at least 300 mg of CBD can be dissolved in 1 mL of BCP. The enhanced stability of the CBD provides a composition with an acceptable shelf life and which can provide consistency in dosing and enhanced safety.

In another data set the target is CB2 receptor (Homo sapiens, UniProt P34972). The conditions noted are these: Proc Natl Acad Sci USA 2008; 105(26):9099-104; cited from earlier work.
CB2 receptor, sequence (P34972 whole entry): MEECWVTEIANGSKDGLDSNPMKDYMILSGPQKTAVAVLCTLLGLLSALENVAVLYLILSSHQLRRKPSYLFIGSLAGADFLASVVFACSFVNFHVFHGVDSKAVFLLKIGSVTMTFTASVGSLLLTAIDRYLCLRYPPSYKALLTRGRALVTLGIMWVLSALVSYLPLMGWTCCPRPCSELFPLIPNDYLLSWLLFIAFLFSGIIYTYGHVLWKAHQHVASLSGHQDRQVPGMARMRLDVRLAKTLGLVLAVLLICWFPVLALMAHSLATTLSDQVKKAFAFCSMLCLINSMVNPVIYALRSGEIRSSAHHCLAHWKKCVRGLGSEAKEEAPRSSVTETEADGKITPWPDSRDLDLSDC

In the case of `C=C(C)[C@@H]1CCC(C)=C[C@H]1c1c(O)cc(CCCCC)cc1O` [CBD, cannabidiol], in “Solubility of CBD in BCP”, the “amount of CBD that can be dissolved in BCP” value was “at least 300 mg”. In the case of `C=C1CC/C=C(\C)CC[C@@H]2[C@@H]1CC2(C)C` (relative stereo) [β-caryophyllene, trans-(1R,9S)-8-Methylene-4,11,11-trimethylbicyclo[7.2.0]undec-4-ene], on CB2 receptor, the “binding to the CB2 receptor” value is recorded as “selectively binds to the CB2 receptor” and the “functional activity at the CB2 receptor” value is reported as “functional CB2 agonist”.

These data come from US20240139216A1, “STABLE ORAL CANNABIDIOL COMPOSITIONS” (CARDIOL THERAPEUTICS INC., priority 2020, published 2024).
